Assay results: patent US11123323B2, “Monoterpenes for treating respiratory disorders, in particular bronchopulmonary disorders” (Maria Clemetine Martin Klosterfrau Vertriebsqesellschaft MBH, priority 2008, dated 2021)

Test system: superoxide production (O2^− production) of normal human monocytes
Assay: PMA-stimulated superoxide production (INT-formazan) of normal human monocytes in vitro
Format: cell-based
Details: for INT-Formazan: PMA, 20 hours; for O2^− production: FIG. 3

`CC12CCC(CC1)C(C)(C)O2` [1,8-cineol, 1,3,3-trimethyl-2-oxabicyclo-[2.2.2]-octane] was tested, and the “Comparison with control (%)” value (0.0015 μg/ml (10^−8 mol/l)) was “+27.6 ± 4%”, the INT-Formazan (0.0015 μg/ml (10^−8 mol/l)) was 5.364 ± 229 nmol/10^5 and the “Comparison with control (%)” value (0.015 μg/ml (10^−7 mol/l)) was “+24.5 ± 6%”. For the same compound, the INT-Formazan (0.015 μg/ml (10^−7 mol/l)) was 5235 ± 341 nmol/10^5, the “Comparison with control (%)” value (0.15 μg/ml (10^−6 mol/l)) was “+26.7 ± 7%” and the INT-Formazan (0.15 μg/ml (10^−6 mol/l)) was 5327 ± 360 nmol/10^5. For the same compound, the “Comparison with control (%)” value (0.3 μg/ml (2 × 10^−6 mol/l)) was “+31.8 ± 6%”, the INT-Formazan (0.3 μg/ml (2 × 10^−6 mol/l)) was 5540 ± 359 nmol/10^5 and the “Comparison with control (%)” value (0.6 μg/ml (4 × 10^−6 mol/l)) was “+43.8 ± 9%”. For the same compound, the INT-Formazan (0.6 μg/ml (4 × 10^−6 mol/l)) was 6045 ± 534 nmol/10^5, the “Comparison with control (%)” value (0.9 μg/ml (6 × 10^−6 mol/l)) was “+45.3 ± 7%” and the INT-Formazan (0.9 μg/ml (6 × 10^−6 mol/l)) was 6107 ± 437 nmol/10^5. The “Comparison with control (%)” value (1.2 μg/ml (8 × 10^−6 mol/l)) was −2.5 ± 6%, the INT-Formazan (1.2 μg/ml (8 × 10^−6 mol/l)) was 4099 ± 234 nmol/10^5 and the “Comparison with control (%)” value (1.5 μg/ml (10^−5 mol/l)) was −42 ± 16%. For the same compound, the INT-Formazan (1.5 μg/ml (10^−5 mol/l)) was 2438 ± 389 nmol/10^5, the “Comparison with control (%)” value (3 μg/ml (2 × 10^−5 mol/l)) was −84.9 ± 22% and the INT-Formazan (3 μg/ml (2 × 10^−5 mol/l)) was 634 ± 139 nmol/10^5. The “O2^− production” value (low concentrations of 1,8-cineol) was “slightly induce O2^− production” and the “O2^− production” value (therapeutic range of 1,8-cineol) was “inhibited strongly”.
